The text below walks through data of patent US20100267561A1, “HERBICIDAL PYRIDAZINONE DERIVATIVES” (priority 2007, published 2010).

For assay [1], the system named is chickweed (Stellaria media). Kind of assay: Test B postemergence plant response. Type of assay: in vivo. Particulars: for Plant response rating, Chickweed: Postemergence; for Chickweed plant response rating: 8 g ai/ha, postemergence, 0-100 scale. Put shortly:
(§1)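 Visual injury ratings on a 0–100 scale, where 100 means complete control, were made 13 to 15 days after postemergence treatment of greenhouse-grown plants at the 1- to 4-leaf stage.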

In assay [2] the test system is canarygrass (Phalaris minor). In words: Test B postemergence plant response. Particulars: for Plant response rating, Canarygrass: Postemergence; for Canarygrass plant response rating: 8 g ai/ha, postemergence, 0-100 scale. Type of assay: in vivo. In outline: as §1
The mark [3] stands for this setting: 31 g ai/ha, scale 0 to 100, 0 no effect, 100 complete control.
The mark [4] stands for this setting: 62 g ai/ha, scale 0 to 100, 0 no effect, 100 complete control.

Regarding “4-[3-(4-chlorophenyl)-5-methyl-1H-pyrazol-3-yl]-5-hydroxy-2-methyl-3(2H)-pyridazinone [Compound 3]”, the “Plant response rating, Chickweed” value in assay [1] (setting [3]) came to 0; in assay [1] (62 g ai/ha, scale 0 to 100) it was 0; in assay [1] (125 g ai/ha, scale 0 to 100) it was 0; in assay [1] (250 g ai/ha, scale 0 to 100), 0. For the same molecule, the “Plant response rating, Canarygrass” value in assay [2] (setting [3]) turned out to be 85; in assay [2] (62 g ai/ha, scale 0 to 100), 85; in assay [2] (125 g ai/ha, scale 0 to 100), 85; in assay [2] (250 g ai/ha, scale 0 to 100), 90.

Turning to `Cc1cc(-c2ccc(C(F)(F)F)cc2)nn1-c1c(O)cnn(C)c1=O` [Compound 1, 5-hydroxy-2-methyl-4-[5-methyl-3-[4-(trifluoromethyl)phenyl]-1H-pyrazol-1-yl]-3(2H)-pyridazinone], the “Plant response rating, Chickweed” value worked out at 0 in assay [1] (setting [3]); 0 in assay [1] (62 g ai/ha, scale 0 to 100); 0 in assay [1] (125 g ai/ha, scale 0 to 100); 5 in assay [1] (250 g ai/ha, scale 0 to 100). Further, the “Plant response rating, Canarygrass” value in assay [2] (setting [3]) is listed as 0; in assay [2] (62 g ai/ha, scale 0 to 100), 0; in assay [2] (125 g ai/ha, scale 0 to 100), 0; in assay [2] (250 g ai/ha, scale 0 to 100), 40.

Turning to `Cc1cc(-c2ccc(Br)cc2)nn1-c1c(O)cnn(C)c1=O` [Compound 4], the “Plant response rating, Chickweed” value turned out to be 0 in assay [1] (setting [3]); 0 in assay [1] (62 g ai/ha, scale 0 to 100); 0 in assay [1] (125 g ai/ha, scale 0 to 100); 20 in assay [1] (250 g ai/ha, scale 0 to 100). The “Plant response rating, Canarygrass” value was determined as 80 in assay [2] (setting [3]); 90 in assay [2] (62 g ai/ha, scale 0 to 100); 100 in assay [2] (125 g ai/ha, scale 0 to 100); 100 in assay [2] (250 g ai/ha, scale 0 to 100).

For the molecule `Cc1cc(-c2ccc(Br)cc2)nn1-c1c(OC(=O)OC(C)C)cnn(C)c1=O` [Compound 6], the “Plant response rating, Chickweed” value amounted to 0 in assay [1] (setting [3]); 0 in assay [1] (62 g ai/ha, scale 0 to 100); 0 in assay [1] (125 g ai/ha, scale 0 to 100); 0 in assay [1] (250 g ai/ha, scale 0 to 100). In addition, the “Plant response rating, Canarygrass” value in assay [2] (setting [3]) is 95; in assay [2] (62 g ai/ha, scale 0 to 100) it was 95; in assay [2] (125 g ai/ha, scale 0 to 100) it was 100; in assay [2] (250 g ai/ha, scale 0 to 100), 100.

`Cc1cc(-c2ccc(Cl)cc2)nn1-c1c(OS(C)(=O)=O)cnn(C)c1=O` [Compound 36]: the “Chickweed plant response rating” value in assay [1] is recorded as 0. For the same molecule, the “Plant response rating, Chickweed” value in assay [1] (16 g ai/ha, scale 0 to 100) amounted to 0; in assay [1] (setting [3]), 0; in assay [1] (setting [4]), 0. The “Canarygrass plant response rating” value in assay [2] was determined as 0. In addition, the “Plant response rating, Canarygrass” value in assay [2] (16 g ai/ha, scale 0 to 100) is on record as 0; in assay [2] (setting [3]), 10; in assay [2] (setting [4]) it was 10.

As to `CCc1cc(-c2ccc(Cl)cc2)nn1-c1c(OS(C)(=O)=O)cnn(C)c1=O` [Compound 39], the “Chickweed plant response rating” value in assay [1] was 0. Also, the “Plant response rating, Chickweed” value was found to be 0 in assay [1] (16 g ai/ha, scale 0 to 100); 0 in assay [1] (setting [3]); 0 in assay [1] (setting [4]). In addition, the “Canarygrass plant response rating” value in assay [2] was determined as 0. Moreover, the “Plant response rating, Canarygrass” value in assay [2] (16 g ai/ha, scale 0 to 100) turned out to be 0; in assay [2] (setting [3]), 40; in assay [2] (setting [4]) it was 50.

In the case of `CCc1cc(-c2ccc(Cl)cc2)nn1-c1c(OC(=O)C(C)(C)C)cnn(C)c1=O` [Compound 40], in assay [1], the “Chickweed plant response rating” value turned out to be 0. Further, the “Plant response rating, Chickweed” value is 0 in assay [1] (16 g ai/ha, scale 0 to 100); 0 in assay [1] (setting [3]); 0 in assay [1] (setting [4]). Moreover, in assay [2], the “Canarygrass plant response rating” value is 20. For the same molecule, the “Plant response rating, Canarygrass” value in assay [2] (16 g ai/ha, scale 0 to 100) is 30; in assay [2] (setting [3]), 80; in assay [2] (setting [4]), 80.

Regarding `CCc1cc(-c2ccc(Br)cc2)nn1-c1c(O)cnn(C)c1=O` [Compound 61], the “Chickweed plant response rating” value in assay [1] worked out at 0. Moreover, the “Plant response rating, Chickweed” value in assay [1] (16 g ai/ha, scale 0 to 100) turned out to be 0; in assay [1] (31 g ai/ha, scale 0 to 100), 0; in assay [1] (setting [4]) it was 0. Moreover, in assay [2], the “Canarygrass plant response rating” value was 80. The “Plant response rating, Canarygrass” value is given as 85 in assay [2] (16 g ai/ha, scale 0 to 100); 85 in assay [2] (31 g ai/ha, scale 0 to 100); 85 in assay [2] (setting [4]).

With `CCc1cc(-c2ccc(C(F)(F)F)cc2)nn1-c1c(O)cnn(CC)c1=O` [Compound 67], the “Chickweed plant response rating” value in assay [1] worked out at 0. The “Plant response rating, Chickweed” value in assay [1] (16 g ai/ha, scale 0 to 100) is 0; in assay [1] (31 g ai/ha, scale 0 to 100), 0; in assay [1] (setting [4]) it was 0. In addition, the “Canarygrass plant response rating” value in assay [2] stood at 50. The “Plant response rating, Canarygrass” value in assay [2] (16 g ai/ha, scale 0 to 100) stood at 80; in assay [2] (31 g ai/ha, scale 0 to 100), 95.

Regarding `COCc1cc(-c2ccc(Br)cc2)nn1-c1c(O)cnn(C)c1=O` [Compound 68], the “Chickweed plant response rating” value in assay [1] was 0. Also, the “Plant response rating, Chickweed” value came out at 0 in assay [1] (16 g ai/ha, scale 0 to 100); 0 in assay [1] (31 g ai/ha, scale 0 to 100); 0 in assay [1] (setting [4]). Besides, in assay [2], the “Canarygrass plant response rating” value is 0. Also, the “Plant response rating, Canarygrass” value in assay [2] (16 g ai/ha, scale 0 to 100) is listed as 0; in assay [2] (31 g ai/ha, scale 0 to 100), 0; in assay [2] (setting [4]), 10.

Consider `Cc1cc(-c2ccc(Cl)cc2)nn1-c1c(OC(=S)N(C)C)cnn(C)c1=O` [Compound 69], for which the “Chickweed plant response rating” value in assay [1] was 0. For the same molecule, the “Plant response rating, Chickweed” value was determined as 0 in assay [1] (16 g ai/ha, scale 0 to 100); 0 in assay [1] (31 g ai/ha, scale 0 to 100); 0 in assay [1] (setting [4]). The “Canarygrass plant response rating” value in assay [2] is listed as 0. The “Plant response rating, Canarygrass” value in assay [2] (16 g ai/ha, scale 0 to 100) is on record as 0; in assay [2] (31 g ai/ha, scale 0 to 100) it was 0; in assay [2] (setting [4]) it was 0.

As to `Cc1nn(C)c(=O)c(-n2nc(-c3ccc(C(F)(F)F)cc3)cc2C)c1O` [Compound 75, 5-hydroxy-2,6-dimethyl-4-[5-methyl-3-[4-(trifluoromethyl)phenyl]-1H-pyrazol-1-yl]-3(2H)-pyridazinone], the “Chickweed plant response rating” value in assay [1] came out at 0. Further, the “Plant response rating, Chickweed” value is 0 in assay [1] (16 g ai/ha, scale 0 to 100); 0 in assay [1] (31 g ai/ha, scale 0 to 100); 0 in assay [1] (setting [4]). Moreover, the “Canarygrass plant response rating” value in assay [2] amounted to 0. For the same molecule, the “Plant response rating, Canarygrass” value in assay [2] (16 g ai/ha, scale 0 to 100) amounted to 0; in assay [2] (31 g ai/ha, scale 0 to 100) it was 0; in assay [2] (setting [4]), 50.

For the molecule `Cc1cc(-c2ccc(Br)cc2)nn1-c1c(O)cn[nH]c1=O` [Compound 78, 4-[3-(4-bromophenyl)-5-methyl-1H-pyrazol-1-yl]-5-hydroxy-3(2H)-pyridazinone], in assay [1], the “Chickweed plant response rating” value is listed as 0. Moreover, the “Plant response rating, Chickweed” value in assay [1] (16 g ai/ha, scale 0 to 100) is 0; in assay [1] (31 g ai/ha, scale 0 to 100), 0; in assay [1] (setting [4]) it was 0. In assay [2], the “Canarygrass plant response rating” value is reported as 80. The “Plant response rating, Canarygrass” value in assay [2] (16 g ai/ha, scale 0 to 100) was determined as 90; in assay [2] (31 g ai/ha, scale 0 to 100), 100; in assay [2] (setting [4]) it was 100.

As to `Cc1cc(-c2ccc(Br)cc2)nn1-c1c(OC(=O)C2CC2)cnn(C(=O)C2CC2)c1=O` [Compound 80, 5-[3-(4-bromophenyl)-5-methyl-1H-pyrazol-1-yl]-1-(cyclopropylcarbonyl)-1,6-dihydro-6-oxo-4-pyridazinyl cyclopropanecarboxylate], the “Chickweed plant response rating” value in assay [1] is 0. In addition, the “Plant response rating, Chickweed” value in assay [1] (16 g ai/ha, scale 0 to 100) is on record as 0; in assay [1] (31 g ai/ha, scale 0 to 100), 0; in assay [1] (setting [4]), 0. For the same molecule, the “Canarygrass plant response rating” value in assay [2] stood at 90. Also, the “Plant response rating, Canarygrass” value turned out to be 98 in assay [2] (16 g ai/ha, scale 0 to 100); 100 in assay [2] (31 g ai/ha, scale 0 to 100); 100 in assay [2] (setting [4]).

For `Cc1nn(C)c(=O)c(-n2nc(-c3ccc(Br)cc3)cc2C)c1O` [Compound 81], the “Chickweed plant response rating” value in assay [1] is reported as 0. In addition, the “Plant response rating, Chickweed” value came to 0 in assay [1] (16 g ai/ha, scale 0 to 100); 0 in assay [1] (31 g ai/ha, scale 0 to 100); 0 in assay [1] (setting [4]). In assay [2], the “Canarygrass plant response rating” value was 65. Moreover, the “Plant response rating, Canarygrass” value turned out to be 98 in assay [2] (31 g ai/ha, scale 0 to 100) and 100 in assay [2] (setting [4]).
